Results taken from ChEMBL document CHEMBL1137827, “Spiroquinazolinones as novel, potent, and selective PDE7 inhibitors. Part 1” (Bioorg Med Chem Lett, 2004).
pIC50: −log10 of the molar value.

Tests used:
[1] = molecular target: T1, High affinity 3',5'-cyclic-AMP phosphodiesterase 7A (Homo sapiens, UniProt Q13946); assay: Inhibition of human Phosphodiesterase 7A1 expressed in baculovirus infected Sf9 cells
[2] = molecular target: T2, cGMP-inhibited 3',5'-cyclic phosphodiesterase 3A (Homo sapiens, UniProt Q14432); assay: In vitro inhibition of human Phosphodiesterase 3A3 expressed in baculovirus infected Sf9 cells
T2 sequence (Q14432 whole entry): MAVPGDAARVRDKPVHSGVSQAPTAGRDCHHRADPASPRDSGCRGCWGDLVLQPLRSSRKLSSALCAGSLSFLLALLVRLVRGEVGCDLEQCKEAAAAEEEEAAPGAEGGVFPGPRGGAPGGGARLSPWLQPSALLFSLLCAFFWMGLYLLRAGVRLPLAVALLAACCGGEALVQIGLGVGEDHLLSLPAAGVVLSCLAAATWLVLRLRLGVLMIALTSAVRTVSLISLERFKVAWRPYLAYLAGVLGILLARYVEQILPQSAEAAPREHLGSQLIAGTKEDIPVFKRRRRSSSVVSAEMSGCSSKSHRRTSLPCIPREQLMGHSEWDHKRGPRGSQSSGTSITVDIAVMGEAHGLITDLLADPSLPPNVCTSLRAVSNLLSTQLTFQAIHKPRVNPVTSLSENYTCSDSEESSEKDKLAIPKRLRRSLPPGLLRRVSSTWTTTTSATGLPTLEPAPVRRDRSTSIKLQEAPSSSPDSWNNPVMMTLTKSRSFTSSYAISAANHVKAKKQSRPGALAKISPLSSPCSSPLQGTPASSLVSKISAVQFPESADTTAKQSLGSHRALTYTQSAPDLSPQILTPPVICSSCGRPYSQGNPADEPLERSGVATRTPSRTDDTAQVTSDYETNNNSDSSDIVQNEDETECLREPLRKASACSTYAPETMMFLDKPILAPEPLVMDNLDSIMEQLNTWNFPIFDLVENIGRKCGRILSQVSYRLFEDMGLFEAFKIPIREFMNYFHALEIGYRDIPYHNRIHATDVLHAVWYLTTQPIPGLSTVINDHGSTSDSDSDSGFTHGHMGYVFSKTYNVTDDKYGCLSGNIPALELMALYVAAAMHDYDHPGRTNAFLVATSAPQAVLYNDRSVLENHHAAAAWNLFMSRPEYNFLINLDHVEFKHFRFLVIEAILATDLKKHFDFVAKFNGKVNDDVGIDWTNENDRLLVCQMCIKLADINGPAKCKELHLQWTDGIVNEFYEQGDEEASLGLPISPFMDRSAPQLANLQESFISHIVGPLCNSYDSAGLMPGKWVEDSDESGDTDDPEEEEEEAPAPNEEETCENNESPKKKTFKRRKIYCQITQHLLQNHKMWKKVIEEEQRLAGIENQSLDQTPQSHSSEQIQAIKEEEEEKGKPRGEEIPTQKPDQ

[3] = molecular target: T3, Phosphodiesterase 1 (Homo sapiens, UniProt P54750+Q01064+Q14123); assay: In vitro inhibition of human Phosphodiesterase 1 partially purified from THP-1 cells
[4] = molecular target: T4, cGMP-specific 3',5'-cyclic phosphodiesterase (Homo sapiens, UniProt O76074); assay: In vitro inhibition of human Phosphodiesterase 5
[5] = molecular target: T5, 3',5'-cyclic-AMP phosphodiesterase 4D (Homo sapiens, UniProt Q08499); assay: In vitro inhibition of human Phosphodiesterase 4D3 expressed in baculovirus infected Sf9 cells
T5 sequence (Q08499 whole entry): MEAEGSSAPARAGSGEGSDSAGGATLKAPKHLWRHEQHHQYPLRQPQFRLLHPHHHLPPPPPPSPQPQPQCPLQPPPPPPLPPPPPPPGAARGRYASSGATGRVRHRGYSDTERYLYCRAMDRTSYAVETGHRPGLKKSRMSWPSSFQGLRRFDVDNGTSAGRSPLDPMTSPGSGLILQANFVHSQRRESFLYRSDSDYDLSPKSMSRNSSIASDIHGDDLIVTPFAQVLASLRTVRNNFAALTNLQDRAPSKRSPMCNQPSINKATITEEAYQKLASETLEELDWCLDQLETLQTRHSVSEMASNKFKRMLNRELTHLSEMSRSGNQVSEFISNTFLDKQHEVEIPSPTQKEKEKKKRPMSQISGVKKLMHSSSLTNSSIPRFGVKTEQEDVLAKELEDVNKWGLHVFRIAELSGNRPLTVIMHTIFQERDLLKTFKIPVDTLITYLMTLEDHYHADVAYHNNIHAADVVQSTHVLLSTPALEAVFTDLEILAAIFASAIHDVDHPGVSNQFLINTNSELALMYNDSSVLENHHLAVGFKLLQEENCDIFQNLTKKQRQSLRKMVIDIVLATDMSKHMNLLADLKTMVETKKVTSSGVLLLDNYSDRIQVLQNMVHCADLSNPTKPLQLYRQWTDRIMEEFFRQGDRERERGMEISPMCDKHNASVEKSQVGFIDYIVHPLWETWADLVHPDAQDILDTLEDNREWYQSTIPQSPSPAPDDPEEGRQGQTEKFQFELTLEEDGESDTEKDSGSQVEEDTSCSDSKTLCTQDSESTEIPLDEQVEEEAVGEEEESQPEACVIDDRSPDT

[6] = molecular target: T1, High affinity 3',5'-cyclic-AMP phosphodiesterase 7A; assay: In vitro inhibition of human Phosphodiesterase 7A1 expressed in baculovirus infected Sf9 cells
[7] = molecular target: T2, cGMP-inhibited 3',5'-cyclic phosphodiesterase 3A; assay: Inhibition of human Phosphodiesterase 3A3 expressed in baculovirus infected Sf9 cells
[8] = molecular target: T4, cGMP-specific 3',5'-cyclic phosphodiesterase; assay: Inhibition of human Phosphodiesterase 5
[9] = molecular target: T3, Phosphodiesterase 1; assay: Inhibition of human Phosphodiesterase 1 partially purified from THP-1 cells; type: cell-free
[10] = molecular target: T5, 3',5'-cyclic-AMP phosphodiesterase 4D; assay: Inhibition of human Phosphodiesterase 4D3 expressed in baculovirus infected Sf9 cells

T1 sequence (Q13946 whole entry): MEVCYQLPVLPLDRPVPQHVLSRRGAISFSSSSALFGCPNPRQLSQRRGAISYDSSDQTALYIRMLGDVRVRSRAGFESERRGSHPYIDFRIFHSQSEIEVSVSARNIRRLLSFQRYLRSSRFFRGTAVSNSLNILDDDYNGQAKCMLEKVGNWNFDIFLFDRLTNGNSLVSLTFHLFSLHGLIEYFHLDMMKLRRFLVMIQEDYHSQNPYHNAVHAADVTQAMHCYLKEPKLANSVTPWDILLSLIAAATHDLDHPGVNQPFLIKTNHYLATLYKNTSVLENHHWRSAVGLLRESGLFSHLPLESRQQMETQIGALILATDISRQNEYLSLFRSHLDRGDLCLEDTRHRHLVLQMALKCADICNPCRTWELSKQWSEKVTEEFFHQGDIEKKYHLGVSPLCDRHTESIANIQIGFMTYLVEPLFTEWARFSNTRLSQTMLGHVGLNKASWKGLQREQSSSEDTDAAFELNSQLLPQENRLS

Compound | pIC50 [1] | pIC50 [2] | IC50 [3] | pIC50 [4] | pIC50 [5] | pIC50 [6] | further results
O=C1Nc2cc(Cl)c(Cl)cc2C2(CCCCC2)N1 | 5.43 |  |  |  |  |  | 
CN(C)CCCNC(=O)c1ccc(-c2cc(Cl)c3c(c2)C2(CCCCC2)NC(=O)N3)cc1 |  | 4.35 | 6470 nM | < 4.29 | 5.82 | 7.70 | 
O=C1Nc2c(C(F)(F)F)cccc2C2(CCCCC2)N1 | 5.53 |  |  |  |  |  | 
CN(C)CCNC(=O)c1ccc(-c2cc(Cl)c3c(c2)C2(CCCCC2)NC(=O)N3)cc1 |  | 4.37 | 6290 nM | < 4.17 | 5.79 | 7.70 | 
O=C1Nc2ccc(Cl)c(Cl)c2C2(CCCCC2)N1 | 6.22 |  |  |  |  |  | 
O=C1Nc2ccc(Cl)cc2C2(CCCCC2)N1 | 5.32 |  |  |  |  |  | 
CC1CCC2(CC1)NC(=O)Nc1c(Br)cccc12 (configuration not stated) | 6.68 |  |  |  |  |  | 
O=C1Nc2ccc(-c3ccccc3)cc2C2(CCCCC2)N1 | 6.01 |  |  |  |  |  | 
CN1CCN(C(=O)c2ccccc2-c2cc(Cl)c3c(c2)C2(CCCCC2)NC(=O)N3)CC1 |  | < 4.04 | 20100 nM | < 4.00 | 4.80 | 5.82 | 
O=C1Nc2c(Br)cccc2C2(CCCCCC2)N1 | 7.22 |  |  |  |  |  | 
CN(C)CCCNC(=O)c1cccc(-c2cc(Cl)c3c(c2)C2(CCCCC2)NC(=O)N3)c1 |  | 4.11 | 5160 nM | < 4.07 | 5.84 | 8.00 | 
O=C1Nc2c(Br)cccc2C2(CCCCC2)N1 | 7.22 |  |  |  |  |  | 
O=C1Nc2c(Br)cccc2C2(CCC2)N1 | 5.85 |  |  |  |  |  | 
O=C1Nc2ccccc2C2(CCCCC2)N1 | 5.18 |  |  |  |  |  | 
O=C1Nc2cc(Cl)ccc2C2(CCCCC2)N1 | 5.57 |  |  |  |  |  | 
O=C1Nc2c(Cl)cc(-c3ccccc3)cc2C2(CCCCC2)N1 | 8.00 |  |  |  |  |  | pIC50 [7]: < 4.00; pIC50 [8]: 4.16; IC50 [9]: 3260 nM; pIC50 [10]: 5.85
O=C1Nc2c(Cl)cc(Cl)cc2C2(CCCCC2)N1 | 6.92 |  |  |  |  |  | 
NC(=O)c1ccc(-c2cc(Cl)c3c(c2)C2(CCCCC2)NC(=O)N3)cc1 |  | 6.55 | 1280 nM |  |  | 7.70 | pIC50 [8]: 4.94; pIC50 [10]: 6.16

Compound | pIC50 [1] | pIC50 [2] | IC50 [3] | pIC50 [4] | pIC50 [5] | pIC50 [6] | further results
CCC1(CC)NC(=O)Nc2c(Br)cccc21 | 5.18 |  |  |  |  |  | 
COc1ccc2c(c1)NC(=O)NC21CCCCC1 | 5.02 |  |  |  |  |  | 
O=C1Nc2c(Cl)cc(-c3ccccn3)cc2C2(CCCCC2)N1 |  | 4.35 | 8300 nM | 4.16 | 5.74 | 7.52 | 
O=C1Nc2c(F)cccc2C2(CCCCC2)N1 | 6.41 |  |  |  |  |  | 
O=C1Nc2c(Cl)cc(-c3cccc(C(=O)O)c3)cc2C2(CCCCC2)N1 |  | 4.78 | 710 nM | 4.90 | 6.13 | 7.70 | 
COc1cc(Cl)c2c(c1)C1(CCCCC1)NC(=O)N2 | 6.80 |  |  |  |  |  | 
O=C1Nc2c(I)cccc2C2(CCCCC2)N1 | 5.16 |  |  |  |  |  | 
Cc1cc(Cl)c2c(c1)C1(CCCCC1)NC(=O)N2 | 6.80 |  |  |  |  |  | 
O=C1Nc2cccc(Cl)c2C2(CCCCC2)N1 | 6.08 |  |  |  |  |  | 
O=C1Nc2c(Cl)cc(-c3ccc(C(=O)O)cc3)cc2C2(CCCCC2)N1 |  | 4.67 | 890 nM | 5.07 | 6.33 | 8.00 | 
CN(C)CCNC(=O)c1cccc(-c2cc(Cl)c3c(c2)C2(CCCCC2)NC(=O)N3)c1 |  | < 4.10 | 11600 nM | < 4.00 | 5.80 | 7.70 | 
O=C1Nc2c(Cl)cc(-c3ccncc3)cc2C2(CCCCC2)N1 |  | 4.95 | 3010 nM | 5.02 | 6.00 | 7.52 | 
O=C1Nc2c(Cl)cc(-c3cccnc3)cc2C2(CCCCC2)N1 |  | 4.83 | 2860 nM | 4.71 | 5.81 | 7.30 | 
Cc1cccc2c1NC(=O)NC21CCCCC1 | 6.10 |  |  |  |  |  | 
CN1CCN(C(=O)c2cccc(-c3cc(Cl)c4c(c3)C3(CCCCC3)NC(=O)N4)c2)CC1 | 7.40 | 4.50 | 6390 nM | 4.28 | 5.88 |  | 
COc1ccc2c(c1)C1(CCCCC1)NC(=O)N2 | 5.49 |  |  |  |  |  | 
CN1CCN(C(=O)c2ccc(-c3cc(Cl)c4c(c3)C3(CCCCC3)NC(=O)N4)cc2)CC1 |  | 4.53 | 7010 nM |  | 5.77 | 8.00 | pIC50 [8]: 4.53
CCCC1(CCC)NC(=O)Nc2c(Br)cccc21 | 5.58 |  |  |  |  |  | 
